This is an account of results in ChEMBL document CHEMBL5614413, “Design, synthesis and biological evaluation of amphiphilic benzopyran derivatives as potent antibacterial agents against multidrug-resistant bacteria” (Eur J Med Chem, 2024).

In brackets after ≈: the same amount, converted by molar mass. Bounds are passed on as bounds.

The nature of series [1]: Hemolytic activity in sheep RBC. Format: toxicity, cell-based, Ovis aries, Erythrocyte. The conditions noted are these: sheep red blood cells (erythrocytes).
For series [2], the system named is Staphylococcus aureus. The experiment in a line: Antibacterial activity against penicillin-resistant Staphylococcus aureus ATCC 31007. Format: functional.
Series [3] concerns Pseudomonas aeruginosa. The experiment in a line: Antibacterial activity against penicillin-susceptible Pseudomonas aeruginosa ATCC 27853. Format: functional.
Series [4] concerns Klebsiella pneumoniae. The experiment in a line: Antibacterial activity against Klebsiella pneumoniae ATCC 10031. Format: functional.
The test system of series [5] is Escherichia coli. The experiment in a line: Antibacterial activity against penicillin-susceptible Escherichia coli ATCC 25922. Format: functional.
In series [6] the test system is Staphylococcus epidermidis. The experiment in a line: Antibacterial activity erythromycin-susceptible Staphylococcus epidermidis ATCC 12228. Format: functional.
Series [7] relates to Acinetobacter baumannii. The experiment in a line: Antibacterial activity against Acinetobacter baumannii ATCC 19606. Format: functional.
A short description of series [8]: Selectivity index, ratio of HC50 for hemolytic activity in sheep RBC to MIC for antibacterial activity against methicillin-resistant Staphylococcus aureus ATCC 43300. Format: toxicity. The settings on record: sheep red blood cells (erythrocytes), read-out: Selectivity Index.
In series [9] the test system is Bacillus subtilis. The experiment in a line: Antibacterial activity against penicillin-susceptible Bacillus subtilis ATCC 9372. Format: functional.
Series [10] has as its system Enterococcus faecalis. The experiment in a line: Antibacterial activity against vancomycin-susceptible Enterococcus faecalis ATCC 29212. It is filed as functional.
Series [11] relates to Staphylococcus aureus. The experiment in a line: Antibacterial activity against methicillin-resistant Staphylococcus aureus ATCC 43300. Format: functional.
Series [12] concerns Staphylococcus aureus. The experiment in a line: Antibacterial activity against erythromycin-susceptible Staphylococcus aureus ATCC 25923. Format: functional.

With `CC(=O)c1ccc2c(c1OCCCNCCCN1CCN(C)CC1)C=CC(C)(CCC=C(C)C)O2` (stereo unspecified), the HC50 (in general, the concentration giving 50% haemolysis) in series [1] is 168 µg/mL. Further, the MIC (usually the lowest concentration found to suppress growth) in [2] amounted to 16 µg/mL (≈ 33.1 µM); in series [3] it was 32 µg/mL (≈ 66.2 µM); in [4], 16 µg/mL (≈ 33.1 µM); in series [5] it was 16 µg/mL (≈ 33.1 µM); in series [6], 8 µg/mL (≈ 16.5 µM); in series [7], 16 µg/mL (≈ 33.1 µM). Besides, the MIC in series [9], in [10], in series [11] and in series [12] was 16 µg/mL (≈ 33.1 µM) each time. The selectivity ratio in series [8] is 10.5.
For the molecule `CC(=O)c1c(OCCCNCCCN2CCOCC2)c2c(c3c1OC(C)(CCC=C(C)C)C=C3)OC(C)(CCC=C(C)C)C=C2` (stereo unspecified), the HC50 in series [1] was determined as 18.1 µg/mL. Besides, the MIC in series [2] is 4 µg/mL (≈ 6.44 µM); in series [3], above 128 µg/mL; in [4], 128 µg/mL (≈ 206 µM); in series [5], above 128 µg/mL; in series [6] it was 4 µg/mL (≈ 6.44 µM); in series [7], 128 µg/mL (≈ 206 µM). Further, the MIC in [9] was 4 µg/mL (≈ 6.44 µM); in [10], 8 µg/mL (≈ 12.9 µM); in [11], 4 µg/mL (≈ 6.44 µM); in series [12] it was 4 µg/mL (≈ 6.44 µM). In series [8], the selectivity ratio was found to be 4.5.
In series [1], `CC(=O)c1c(OCCCNCCCN2CCCC2)c2c(c3c1OC(C)(CCC=C(C)C)C=C3)OC(C)(CCC=C(C)C)C=C2` (stereo unspecified) had an HC50 of 19.7 µg/mL. The MIC amounted to 4 µg/mL (≈ 6.61 µM) in series [2]; 128 µg/mL (≈ 212 µM) in series [3]; 8 µg/mL (≈ 13.2 µM) in [4]; 16 µg/mL (≈ 26.5 µM) in series [5]; 4 µg/mL (≈ 6.61 µM) in [6]; 16 µg/mL (≈ 26.5 µM) in series [7]. The MIC in series [9] was determined as 8 µg/mL (≈ 13.2 µM); in series [10] it was 4 µg/mL (≈ 6.61 µM); in series [11] it was 4 µg/mL (≈ 6.61 µM); in series [12] it was 4 µg/mL (≈ 6.61 µM). In [8], the selectivity ratio turned out to be 4.9.
Take `CCNCCCOc1ccc(/C=C/C(=O)c2ccc3c(c2OC)C=CC(C)(CCC=C(C)C)O3)cc1` (stereo unspecified): the HC50 in series [1] amounted to 59.9 µg/mL. Further, the MIC in series [2] was 8 µg/mL (≈ 16.3 µM); in [3] it was above 128 µg/mL; in series [4] it was 32 µg/mL (≈ 65.4 µM); in series [5], above 128 µg/mL; in series [6] it was 1 µg/mL (≈ 2.04 µM); in series [7], above 128 µg/mL. The MIC in series [9] was found to be 8 µg/mL (≈ 16.3 µM); in series [10], 4 µg/mL (≈ 8.17 µM); in series [11] it was 8 µg/mL (≈ 16.3 µM); in series [12], 8 µg/mL (≈ 16.3 µM). In addition, the selectivity ratio in series [8] stood at 7.5.
On to `CCCCN(CCCC)CCCNCCCOc1c2c(c3c(c1C(C)=O)OC(C)(CCC=C(C)C)C=C3)OC(C)(CCC=C(C)C)C=C2` (stereo unspecified), for which, in series [1], the HC50 is 36.7 µg/mL. The MIC in series [2] turned out to be 2 µg/mL (≈ 3.02 µM); in series [3], 128 µg/mL (≈ 193 µM); in series [4], 8 µg/mL (≈ 12.1 µM); in series [5], 8 µg/mL (≈ 12.1 µM); in [6] it was 1 µg/mL (≈ 1.51 µM); in series [7] it was 4 µg/mL (≈ 6.03 µM). Moreover, the MIC came to 4 µg/mL (≈ 6.03 µM) in series [9], 1 µg/mL (≈ 1.51 µM) in series [10], 4 µg/mL (≈ 6.03 µM) in series [11] and 1 µg/mL (≈ 1.51 µM) in [12]. In addition, the selectivity ratio in series [8] was 9.2.
Regarding `CC(=O)c1ccc2c(c1OCCCN1CCSCC1)C=CC(C)(CCC=C(C)C)O2` (stereo unspecified), the HC50 in series [1] is above 1280 µg/mL. For the same molecule, the MIC is above 128 µg/mL in series [2]; above 128 µg/mL in [3]; above 128 µg/mL in series [4]; above 128 µg/mL in [5]; above 128 µg/mL in series [6]; 128 µg/mL (≈ 298 µM) in series [7]. Further, the MIC in [9], in [10], in [11] and in [12] was above 128 µg/mL throughout. Further, the selectivity ratio in [8] was below 10.
In turn, `CCN(CC)CCCNCCCOc1c(C(C)=O)ccc2c1C=CC(C)(CCC=C(C)C)O2` (stereo unspecified) returned an HC50 in [1] of 140 µg/mL. Besides, the MIC in [2] came to 16 µg/mL (≈ 35 µM); in series [3], 16 µg/mL (≈ 35 µM); in series [4], 8 µg/mL (≈ 17.5 µM); in series [5], 8 µg/mL (≈ 17.5 µM); in series [6], 8 µg/mL (≈ 17.5 µM); in [7], 8 µg/mL (≈ 17.5 µM). Further, the minimal inhibitory concentration (MIC) in [9], in series [10], in series [11] and in series [12] was 8 µg/mL (≈ 17.5 µM) each time. Further, the selectivity ratio in series [8] worked out at 17.5.
For `CC(=O)c1ccc2c(c1OCC(=O)NCCCN1CCOCC1)C=CC(C)(CCC=C(C)C)O2` (stereo unspecified), the concentration for 50% haemolysis (HC50) in series [1] came to 261 µg/mL. Besides, the MIC in series [2] was 128 µg/mL (≈ 272 µM); in series [3], above 128 µg/mL; in [4], 128 µg/mL (≈ 272 µM); in series [5], above 128 µg/mL; in [6], 128 µg/mL (≈ 272 µM); in [7], 128 µg/mL (≈ 272 µM). The MIC in series [9] turned out to be 128 µg/mL (≈ 272 µM); in [10], 128 µg/mL (≈ 272 µM); in series [11], 64 µg/mL (≈ 136 µM); in series [12], 128 µg/mL (≈ 272 µM). Further, the selectivity ratio in series [8] was determined as 4.1.
In turn, `CC(=O)c1c(OCCCN2CCSCC2)c2c(c3c1OC(C)(CCC=C(C)C)C=C3)OC(C)(CCC=C(C)C)C=C2` (stereo unspecified) came in with an HC50 in [1] of 844 µg/mL. For the same molecule, the MIC in [2], in series [3], in series [4], in [5], in series [6] and in [7] was above 128 µg/mL each time. In addition, the MIC in series [9], in [10], in [11] and in series [12] was above 128 µg/mL each time. For the same molecule, in [8], the selectivity ratio is below 6.6.
`CC(=O)c1ccc2c(c1OCC(=O)NCCN(C)C)C=CC(C)(CCC=C(C)C)O2` (stereo unspecified): the HC50 in series [1] was 316 µg/mL. Also, the MIC in series [2] turned out to be 128 µg/mL (≈ 309 µM); in series [3], 128 µg/mL (≈ 309 µM); in series [4], 32 µg/mL (≈ 77.2 µM); in series [5], 128 µg/mL (≈ 309 µM); in series [6], 64 µg/mL (≈ 154 µM); in series [7], 64 µg/mL (≈ 154 µM). In addition, the MIC in [9] was determined as 64 µg/mL (≈ 154 µM); in series [10], 64 µg/mL (≈ 154 µM); in [11], 128 µg/mL (≈ 309 µM); in series [12], 64 µg/mL (≈ 154 µM). Besides, the selectivity ratio in series [8] came to 4.9.
In [1], `CC(=O)c1c(OCCCN(CCCN(C)C)CCCN(C)C)c2c(c3c1OC(C)(CCC=C(C)C)C=C3)OC(C)(CCC=C(C)C)C=C2` (stereo unspecified) gave an HC50 of 30.2 µg/mL. The MIC was found to be 4 µg/mL (≈ 6.02 µM) in series [2]; 128 µg/mL (≈ 193 µM) in series [3]; 8 µg/mL (≈ 12 µM) in series [4]; 8 µg/mL (≈ 12 µM) in series [5]; 4 µg/mL (≈ 6.02 µM) in [6]; 8 µg/mL (≈ 12 µM) in series [7]. Moreover, the minimal inhibitory concentration (MIC) in series [9] is 4 µg/mL (≈ 6.02 µM); in [10], 4 µg/mL (≈ 6.02 µM); in series [11] it was 2 µg/mL (≈ 3.01 µM); in series [12], 4 µg/mL (≈ 6.02 µM). In series [8], the selectivity ratio turned out to be 15.1.
In the case of `CCN(CC)C(=O)COc1c(C(C)=O)ccc2c1C=CC(C)(CCC=C(C)C)O2` (stereo unspecified), the HC50 in [1] turned out to be 131 µg/mL. The minimum inhibitory concentration (MIC) in [2] is above 128 µg/mL; in series [3], above 128 µg/mL; in series [4] it was above 128 µg/mL; in series [5] it was above 128 µg/mL; in series [6], above 128 µg/mL; in series [7], 128 µg/mL (≈ 320 µM). Also, the MIC in [9] was above 128 µg/mL; in series [10], above 128 µg/mL; in [11], 128 µg/mL (≈ 320 µM); in series [12], above 128 µg/mL. In series [8], the selectivity ratio is 1.
In series [1], `CC(=O)c1ccc2c(c1OCC(=O)N(CCCN)CCCN)C=CC(C)(CCC=C(C)C)O2.Cl.Cl` (stereo unspecified) returned an HC50 of 1670 µg/mL. Besides, the MIC was above 128 µg/mL in [2]; above 128 µg/mL in [3]; above 128 µg/mL in series [4]; above 128 µg/mL in series [5]; 128 µg/mL in series [6]; above 128 µg/mL in [7]. Also, the MIC in series [9] was 32 µg/mL; in series [10] it was above 128 µg/mL; in series [11] it was 128 µg/mL; in [12], above 128 µg/mL. Also, the selectivity ratio in series [8] came out at 13.
